Reference: paper PMC12396409, “Screening and hit evaluation of a microbial metabolite library against the pathogenic Plasmodium falciparum and Toxoplasma gondii parasites” (International Journal for Parasitology: Drugs and Drug …, 2025)
Like-named read-outs stand apart in the source and are kept apart here.

How the values were obtained:
[1] = test system: T. gondii RH strain (RH-Tub-eYFP) tachyzoites; assay: microbe, parasite or virus in culture; assay type: cell-based, Toxoplasma gondii; conditions: 72 h; for percent parasite growth at 2 µg/mL: Toxoplasma gondii
[2] = test system: P. falciparum 3D7 parasites; assay: P. falciparum growth inhibition assay, 1-cycle (72 h treatment), SYBR DNA staining (library screen at 2 μg/mL and dose-response); assay type: cell-based, Plasmodium falciparum; conditions: for activity at 2 µg/mL: Plasmodium falciparum, 3D7
[3] = test system: P. falciparum 3D7 parasites; assay: P. falciparum growth inhibition assay, 2-cycle (120 h treatment), delayed-death screen and dose-response; assay type: cell-based, Plasmodium falciparum; conditions: for activity at 2 µg/mL: Plasmodium falciparum, 3D7
[4] = library screen at 2 μg/mL, % growth, replicate 1
[5] = library screen at 2 μg/mL, % growth, replicate 2
[6] = library screen at 2 μg/mL, 72 h, % growth, replicate 1
[7] = library screen at 2 μg/mL, 72 h, % growth, replicate 2
[8] = library screen at 2 μg/mL, 120 h, % growth, replicate 1
[9] = library screen at 2 μg/mL, 120 h, % growth, replicate 2
[10] = T. gondii, 2 μg/mL, values are growth (% of control)

Question: For CC[C@H](C)[C@H]1O[C@]2(C=C[C@@H]1C)C[C@@H]1C[C@@H](C/C=C(\C)[C@@H](O[C@H]3C[C@H](OC)[C@@H](O[C@H]4C[C@H](OC)[C@H](NC)[C@H](C)O4)[C@H](C)O3)[C@@H](C)/C=C/C=C3\CO[C@@H]4[C@H](O)C(C)=C[C@@H](C(=O)O1)[C@]34O)O2 [Emamectin B1a], which Tg_72h_%Growth_Rep1 [1, 4] is on record?
Answer: 22.56%

Question: And the Tg_72h_%Growth_Rep2 [1, 5]?
Answer: 92.26%

Question: And the Pf_72h_%Growth_Rep1 [2, 6]?
Answer: 2.12%

Question: And the Pf_72h_%Growth_Rep2 [2, 7]?
Answer: 0.39%

Question: And the Pf_120h_%Growth_Rep1 [3, 8]?
Answer: 3.81%

Question: And the Pf_120h_%Growth_Rep2 [3, 9]?
Answer: 6.54%

Question: Which results are given for CNC1=NC(=O)C(C(C)c2c[nH]c3ccccc23)O1 (stereo not drawn) [BIA-I1040]?
Answer: Tg_72h_%Growth_Rep1 ([1]; T. gondii RH, library screen at 2 μg/mL, % growth, replicate 1): 45.17%; Tg_72h_%Growth_Rep2 ([1]; T. gondii RH, library screen at 2 μg/mL, % growth, replicate 2): 47.91%; Pf_72h_%Growth_Rep1 ([2]; P. falciparum 3D7, 72 h, library screen at 2 μg/mL, % growth, replicate 1): 33.91%; Pf_72h_%Growth_Rep2 ([2]; P. falciparum 3D7, 72 h, library screen at 2 μg/mL, % growth, replicate 2): 55.84%; Pf_120h_%Growth_Rep1 ([3]; P. falciparum 3D7, 120 h, library screen at 2 μg/mL, % growth, replicate 1): 17.78%; Pf_120h_%Growth_Rep2 ([3]; P. falciparum 3D7, 120 h, library screen at 2 μg/mL, % growth, replicate 2): 16.99%

Question: Which percent parasite growth at 2 µg/mL ([1]; T. gondii, screen at 2 μg/mL, replicate 1, read-out: Tg_72h_%Growth_Rep1) does the source give for O=c1[nH]c2ccccc2c(-c2ccccc2)c1O [Viridicatin] here?
Answer: 145%

Question: And the percent parasite growth at 2 µg/mL ([1]; T. gondii, screen at 2 μg/mL, replicate 2, read-out: Tg_72h_%Growth_Rep2)?
Answer: 80.5%

Question: What about the activity at 2 µg/mL ([2]; P. falciparum, 72 h, screen at 2 μg/mL, replicate 1, read-out: Pf_72h_%Growth_Rep1) of the same compound?
Answer: 91.8%

Question: And the activity at 2 µg/mL ([2]; P. falciparum, 72 h, screen at 2 μg/mL, replicate 2, read-out: Pf_72h_%Growth_Rep2)?
Answer: 125%

Question: What about the activity at 2 µg/mL ([3]; P. falciparum, 120 h, screen at 2 μg/mL, replicate 1, read-out: Pf_120h_%Growth_Rep1) of the same compound?
Answer: 106%

Question: And the activity at 2 µg/mL ([3]; P. falciparum, 120 h, screen at 2 μg/mL, replicate 2, read-out: Pf_120h_%Growth_Rep2)?
Answer: 104%

Question: Which results are given for Cc1cc(O)c2c(c1)C(=O)c1c(c(O)cc(O)c1-c1c(O)cc(O)c3c1C(=O)c1cc(C)cc(O)c1C3=O)C2=O [Skyrin]?
Answer: percent parasite growth at 2 µg/mL ([1]; T. gondii, parasite screen 2 μg/mL, % growth, replicate 1, read-out: Tg_72h_%Growth_Rep1): 114%; percent parasite growth at 2 µg/mL ([1]; T. gondii, parasite screen 2 μg/mL, % growth, replicate 2, read-out: Tg_72h_%Growth_Rep2): 84.9%; activity at 2 µg/mL ([2]; P. falciparum, 72 h, parasite screen 2 μg/mL, % growth, replicate 1, read-out: Pf_72h_%Growth_Rep1): 80.4%; activity at 2 µg/mL ([2]; P. falciparum, 72 h, parasite screen 2 μg/mL, % growth, replicate 2, read-out: Pf_72h_%Growth_Rep2): 120%; activity at 2 µg/mL ([3]; P. falciparum, 120 h, parasite screen 2 μg/mL, % growth, replicate 1, read-out: Pf_120h_%Growth_Rep1): 75.2%; activity at 2 µg/mL ([3]; P. falciparum, 120 h, parasite screen 2 μg/mL, % growth, replicate 2, read-out: Pf_120h_%Growth_Rep2): 137%

Question: For CCCC(=O)O[C@H]1[C@H](C)O[C@@H](O[C@H]2[C@H](N(C)C)[C@@H](O)[C@H](O[C@H]3[C@@H](CC=O)C[C@@H](C)[C@@H](O)/C=C/C=C/C[C@@H](C)OC(=O)C[C@@H](OC(C)=O)[C@@H]3OC)O[C@@H]2C)C[C@@]1(C)O [Leucomycin A4], which Mean ([1]; T. gondii, 2 μg/mL, mean of both replicates, growth (% of control)) is on record?
Answer: 23.43

Question: And the “Replicate 1” value [1, 10]?
Answer: 19.43

Question: And the “Replicate 2” value [1, 10]?
Answer: 27.43

Question: And the “1) Growth (%) at 72 h” value ([2]; P. falciparum, 2 μg/mL, 72 h)?
Answer: 46.88%

Question: And the “2) Growth (%) at 120 h” value ([3]; P. falciparum, 2 μg/mL, 120 h)?
Answer: 1.51%

Question: And the “3) Fold change (72 h/120 h)” value ([3]; P. falciparum, growth at 72 h / growth at 120 h, 2 μg/mL)?
Answer: 31.0

Question: For COC12c3c(C)cc(O)c4c(=O)occ(c34)C(=O)C1C13COC(=O)c4c(O)cc(C)c(c41)C(=O)C2C3OC(C)=O (stereo not drawn) [Duclauxin], which Tg_72h_%Growth_Rep1 [1, 4] is on record?
Answer: 149.61%

Question: What about the Tg_72h_%Growth_Rep2 [1, 5] of the same compound?
Answer: 92.65%

Question: What about the Pf_72h_%Growth_Rep1 [2, 6] of the same compound?
Answer: 87.43%

Question: And the Pf_72h_%Growth_Rep2 [2, 7]?
Answer: 79.39%

Question: And the Pf_120h_%Growth_Rep1 [3, 8]?
Answer: 87.90%

Question: What about the Pf_120h_%Growth_Rep2 [3, 9] of the same compound?
Answer: 120.62%

Question: Which results are given for CCO[C@@H]1[C@@H](OC)[C@H](C)O[C@@H](O[C@@H]2C[C@H]3CC[C@@H]4[C@@H](C=C5C(=O)[C@H](C)[C@@H](O[C@H]6CC[C@H](N(C)C)[C@@H](C)O6)CCC[C@H](CC)OC(=O)C[C@H]54)[C@@H]3C2)[C@@H]1OC [spinosyn J, 3'-Ethoxy-5,6-dihydro-]?
Answer: Tg_72h_%Growth_Rep1 ([1]; T. gondii, parasite screen 2 μg/mL, % growth, replicate 1): 73.90%; Tg_72h_%Growth_Rep2 ([1]; T. gondii, parasite screen 2 μg/mL, % growth, replicate 2): 86.54%; Pf_72h_%Growth_Rep1 ([2]; P. falciparum, 72 h, parasite screen 2 μg/mL, % growth, replicate 1): 5.68%; Pf_72h_%Growth_Rep2 ([2]; P. falciparum, 72 h, parasite screen 2 μg/mL, % growth, replicate 2): 5.35%; Pf_120h_%Growth_Rep1 ([3]; P. falciparum, 120 h, parasite screen 2 μg/mL, % growth, replicate 1): 7.21%; Pf_120h_%Growth_Rep2 ([3]; P. falciparum, 120 h, parasite screen 2 μg/mL, % growth, replicate 2): 9.72%

Question: What does the source list for CCCC[C@H](O)[C@@H]1CC(OC)=CC(=O)O1 [BIA-P1067]?
Answer: Tg_72h_%Growth_Rep1 ([1]; T. gondii, parasite screen at 2 μg/mL, % growth, replicate 1): 91.14%; Tg_72h_%Growth_Rep2 ([1]; T. gondii, parasite screen at 2 μg/mL, % growth, replicate 2): 92.83%; Pf_72h_%Growth_Rep1 ([2]; P. falciparum 3D7, 72 h, parasite screen at 2 μg/mL, % growth, replicate 1): 81.23%; Pf_72h_%Growth_Rep2 ([2]; P. falciparum 3D7, 72 h, parasite screen at 2 μg/mL, % growth, replicate 2): 52.23%; Pf_120h_%Growth_Rep1 ([3]; P. falciparum 3D7, 120 h, parasite screen at 2 μg/mL, % growth, replicate 1): 77.65%; Pf_120h_%Growth_Rep2 ([3]; P. falciparum 3D7, 120 h, parasite screen at 2 μg/mL, % growth, replicate 2): 111.54%
